Results taken from PMC8510601, “Discovery of benzamide-hydroxypyridinone hybrids as potent multi-targeting agents for the treatment of Alzheimer's disease” (Journal of Enzyme Inhibition and Medicinal Chemistry, 2021).
Structures can show the parent of a compound that is named as a salt. Where two headings read alike, the source gives them in different places.

Key:
MAO-B = target: T1, MAO-B (Homo sapiens, UniProt P27338); assay: Human MAO-B inhibition assay; format: biochemical; conditions: for inhibition at 0.1 µM: read-out: Inhibitory rate ± SEM (%, 100 nM); for inhibition at 1 µM: read-out: Inhibitory rate ± SEM (%, 1 μM); for IC50: ± SEM, read-out: IC50 against MAO-B
T1 sequence (P27338 1-520): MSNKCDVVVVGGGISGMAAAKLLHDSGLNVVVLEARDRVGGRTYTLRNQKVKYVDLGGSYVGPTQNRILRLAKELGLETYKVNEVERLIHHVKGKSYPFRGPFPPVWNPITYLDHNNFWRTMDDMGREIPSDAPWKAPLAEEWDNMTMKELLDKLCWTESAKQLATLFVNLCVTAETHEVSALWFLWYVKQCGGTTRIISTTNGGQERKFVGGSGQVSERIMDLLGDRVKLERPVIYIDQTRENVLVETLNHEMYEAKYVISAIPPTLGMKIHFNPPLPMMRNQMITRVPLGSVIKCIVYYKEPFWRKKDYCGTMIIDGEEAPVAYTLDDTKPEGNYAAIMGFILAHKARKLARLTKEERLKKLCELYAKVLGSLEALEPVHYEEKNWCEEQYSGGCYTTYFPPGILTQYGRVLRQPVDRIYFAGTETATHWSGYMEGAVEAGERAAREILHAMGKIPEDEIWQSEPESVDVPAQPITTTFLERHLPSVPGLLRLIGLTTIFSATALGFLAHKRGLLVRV

[1] = pKa determination by spectrophotometric titration; conditions: pH range 2.0–10.5, 25 °C
[2] = Iron-chelating activity test: affinity constants for Fe3+ and pFe3+
[3] = DFP^d: KCl (0.1 M); cited from earlier work
[4] = DFP^d: KCl (0.1 M); cited from earlier work; remark: listed apart in the source
[5] = test system: scopolamine-induced cognitive dysfunction ICR mice; assay: Morris water maze test, scopolamine-induced cognitive dysfunction; conditions: MWM last day, test agent 15 mg/kg i.p. + scopolamine 15 mg/kg i.p., 15 days, n = 8, mean ± SEM
Procedure: The MWM test was performed at the last 5 days including two days of memory and learning training, three days of cognitive assessment. On the fifth day, a probe training trial was performed and analysed. […] However, the dosage of scopolamine was increased from 5 mg/kg to 15 mg/kg to achieve a better modelling effect.
Cognitive and memory assays in vivo
The adult female ICR mice (8-10 weeks old, weight 20-25 g) were obtained from the
Zhejiang Academy of Medical Sciences (Hangzhou, China).
agents were prepared as clear injections, consisting of 10% DMSO, 20%
(2-hydroxypropyl)-β-cyclodextrin and PBS. The mice were trained to find the platform (10 cm
diameter) in the opaque circular pool (120 cm diameter, 60 cm height) filled with water (40 cm,
depth), which was described in detail in our previous study.[1] All mice received at least one
training session daily in four quadrants for four consecutive days before testing of finding the
The mice were randomly divided into four groups: (i) control group (PBS of 20%
were intraperitoneally injected with indicated compounds or solvent 30 min before intraperitoneal
injection with scopolamine or PBS once a day for 15 consecutive days. The Morris water maze
test was performed at the last 5 days.

in vitro = conditions: PAMPA
[6] = literature value, cited from earlier work
PAMPA-BBB assay = conditions: from Pe in PAMPA-BBB
PC12 cells = assay: Intracellular ROS detection (DCFH-DA), Aβ1–42-induced; format: cell-based; conditions: 8g and Aβ1–42 10 μM, flow cytometry
Procedure: Aβ deposition and peroxidation are also important clinical features of AD. Therefore, we subsequently assessed the antioxidation of compound 8g, using 2′,7′-dichlorofluorescin diacetate (DCFH-DA) to detect intracellular ROS generation on the PC12 cell line derived from neural pheochromocytoma. Based on our previous research, the concentration of 10 μM of compound 8g was chosen in this test. […]
8. Intracellular ROS detection

[7] = 0.1 M KCl aqueous solution, KCl (0.1 M)
[8] = 0.1 M KCl aqueous solution, pKa2, KCl (0.1 M)
[9] = pH 7.4, [Fe3+]total = 10^−6 M, [ligand]total = 10^−5 M, calculated from pKa and log β measured in KCl/DMSO

Molecule	inhibition at 0.1 µM (MAO-B; 100 nM) [%]	inhibition at 1 µM (MAO-B; 1 μM) [%]	IC50 (MAO-B) [nM]	melting point [°C]	pKa [1, 7]	pKa [1, 8]	Log β2 ([2]; KCl (0.1 M): DMSO = 3:2 (v/v))	Log β3 ([2]; KCl (0.1 M): DMSO = 3:2 (v/v))	Log β1 ([2]; KCl (0.1 M): DMSO = 9:1 (v/v))	pFe^3+ [2, 9]	other results
Cc1ccc(COc2ccc(C(=O)NCCn3ccc(=O)c(O)c3C)cc2)cc1 [Compound 8t]	45.1 ± 1.62	64.1 ± 0.82	118 ± 4.24	245 to 247	3.12	9.93	26.42	35.19	14.45	18.18	–
Cc1c(O)c(=O)ccn1CCNC(=O)c1ccc(OCc2ccc(C(C)C)cc2)cc1 [Compound 8u]	41.5 ± 1.94	62.92 ± 0.51	128 ± 3.96	247 to 249	3.33	9.58	25.58	35.36	14.67	19.35	–
Cc1c(O)c(=O)ccn1CCNC(=O)c1ccc(OCc2ccc(C(C)(C)C)cc2)cc1 [Compound 8v]	48.9 ± 1.93	64.2 ± 1.94	124 ± 1.32	245 to 247	3.29	9.56	25.51	35.20	14.69	19.25	–
Cc1c(O)c(=O)ccn1C [DFP, Deferiprone, reference compound]	–	–	–	–	–	–	26.04	34.84	14.75	18.24	Log β1 [3]: 15.03; Log β2 [3]: 27.42; Log β3 [3]: 37.35; pFe^3+ [3]: 20.74; pKa1 [4]: 3.61; pKa2 [4]: 9.78; pKa ([1]; KCl (0.1 M)): 3.64; pKa2 ([1]; KCl (0.1 M)): 9.79; pFe^3+ ([2]; DFP^a: from constants measured in KCl (0.1 M)): 20.12; Log β1 ([2]; DFP^a: measured in KCl (0.1 M)): 14.86; Log β2 ([2]; DFP^a: measured in KCl (0.1 M)): 27.13; Log β3 ([2]; DFP^a: measured in KCl (0.1 M)): 36.76
C#CCN(C)Cc1ccccc1 [Pargyline, reference compound]	–	–	–	–	–	–	–	–	–	–	inhibition at 0.1 µM (MAO-B): 50.3 ± 0.73%; inhibition at 1 µM (MAO-B): 91.59 ± 0.09%; Distance to the target [5]: 2.89 ± 0.69 m; Entries to the target [5]: 3.85 ± 0.48
CN1C(C(=O)Nc2ccccn2)=C(O)c2ccccc2S1(=O)=O [Piroxicam]	–	–	–	–	–	–	–	–	–	–	Papp (in vitro): 2.05 ± 0.04 ×10⁻⁶ cm/s; Pe ([6]; footnote c): 2.5^c 10^–6 cm/s; Prediction of CNS penetrability (PAMPA-BBB assay): CNS ± (CNS ±: 2.0 < Pe (10^–6 cm/s) < 4.0, uncertain BBB permeability)
Nc1c2c(nc3ccccc13)CCCC2 [Tacrine]	–	–	–	–	–	–	–	–	–	–	Papp at 6 h, 25 μg/mL (in vitro): 4.12 ± 0.45 ×10⁻⁶ cm/s; Pe ([6]; footnote b): 5.3 ± 0.19^b 10^–6 cm/s
CN1[C@@H]2C[C@@H](OC(=O)[C@H](CO)c3ccccc3)C[C@H]1[C@@H]1O[C@@H]12 [scopolamine, Scopolamine hydrobromide]	–	–	–	–	–	–	–	–	–	–	Distance to the target [5]: 7.74 ± 1.23 m; Entries to the target [5]: 2.00 ± 0.50; Latency to the target [5]: 41.40 ± 5.87 s
Aβ1–42: Aβ peptide used to induce intracellular ROS in PC12 cells (model group) [reference compound]	–	–	–	–	–	–	–	–	–	–	ROS %Gated (percentage of positive cells in the total number of cells) (PC12 cells): 44.58%; ROS Mean (average fluorescence intensity of all cells) (PC12 cells): 131.56

Further lines, with some results ahead:

inhibition at 0.1 µM (MAO-B; 100 nM) [%]	inhibition at 1 µM (MAO-B; 1 μM) [%]	IC50 (MAO-B) [nM]	melting point [°C]	pKa [1, 7]	pKa [1, 8]	Molecule	Log β2 ([2]; KCl (0.1 M): DMSO = 3:2 (v/v))	Log β3 ([2]; KCl (0.1 M): DMSO = 3:2 (v/v))	Log β1 ([2]; KCl (0.1 M): DMSO = 9:1 (v/v))	pFe^3+ [2, 9]	other results
44.38 ± 0.23	56.43 ± 0.24	121.5 ± 0.86	156 to 158	3.47	9.68	Cc1c(O)c(=O)ccn1CCNC(=O)c1ccccc1O [Compound 8w]	25.69	34.63	14.45	18.34	–
43.63 ± 0.34	55.75 ± 0.03	121 ± 1.94	144 to 146	3.28	9.75	Cc1c(O)c(=O)ccn1CCNC(=O)c1cccc(O)c1 [Compound 8x]	25.93	34.96	14.67	18.46	–
37.6 ± 1.01	55.3 ± 1.91	–	163 to 165	3.33	9.95	Cc1c(O)c(=O)ccn1CCNC(=O)c1ccc(O)cc1 [Compound 8y]	26.07	35.42	14.61	18.31	–
34 ± 5.19	61.48 ± 0.58	–	219 to 221	3.35	9.86	Cc1c(O)c(=O)ccn1CCNC(=O)c1ccccn1 [Compound 11a]	25.92	35.10	14.52	18.27	–
34.1 ± 1.58	60.8 ± 1.99	248 ± 9.56	266 to 268	3.09	9.79	Cc1c(O)c(=O)ccn1CCNC(=O)c1cccnc1 [Compound 11b]	25.68	34.75	14.40	18.13	–
29.1 ± 2.14	69.7 ± 2.38	–	280 to 282	3.15	9.81	Cc1c(O)c(=O)ccn1CCNC(=O)c1ccncc1 [Compound 11c]	26.21	35.58	14.74	18.89	–
